This note sets out measurements from patent US20120245184A1 (Aderans Research Institute, Inc., priority 2006, published 2012).

Experiment [1] concerns sonic hedgehog pathway. As to the kind of experiment: Human hedgehog reporter assay Daoy-GliLuc (DGL). Type of experiment: cell-based. The conditions noted are these: Daoy human medulloblastoma cells, gli-luciferase reporter; read-out: Daoy Avg. EC50. From the text:
(§1) Mouse (TM3: mouse Leydig cells; S12: mouse embryonic mesenchymal cells) and human (Daoy: human medulloblastoma cell; HepM: human embryonic palatal mesenchymal cell) cell lines are used to screen small molecules for their ability to modulate the activity of the sonic hedgehog pathway (Table 1, Table 2, and Table 3). Stable hedgehog pathway reporter cell lines are established by specific antibiotic selection following transfection of a reporter plasmid containing a luciferase gene located directly downstream from the gli promoter. Consequently, any observable changes in cellular luciferase activity may be attributed to changes in sonic hedgehog pathway activity in mouse and human cells, respectively, since gli is the major by-product of this pathway. To calculate activity, we generate an eleven point dose curve for each compound using 1:3 dilutions in 96 well assay plates. Each plate tested also contains low and high control to establish maximal pathway activation so to establish/compare a percentage activation of each tested compound (AMAX) on respective plates.
(§2) Stable hedgehog pathway reporter cell lines are established following specific antibiotic selection following transfection of a reporter plasmid
(§3) In short, typically cells are plated in MicroTiter-plates at 10,000-20,000 cells per well, in growth media (containing 10%-20% FBS). After 48-72 hrs (HGL and DGL respectively) the media in the assay plates is switched to low-serum containing media (0.5% FBS). At that time compounds are added (at 1-5 μM) to the assay plates, in the presence or absence of hedgehog protein (octyl-modified version; 1-5 ng/ml). After another 24 hrs of incubation, the media from the assay plates is discarded and replaced with luciferase assay-mix. Subsequently, plates are incubated at RT for ˜15-30 mins and then read in a luminometer. [note: addition of the Hedgehog protein, although not critical, will sensitize the assay allowing the identification of weak actives].

Experiment [2] relates to sonic hedgehog pathway. Nature of the experiment: Human hedgehog reporter assay HEPM-GliLuc (HGL). The experiment is classed as cell-based. Particulars: read-out: HEPM Avg. EC50.
Source text: as §1, §2, §3

The subject of experiment [3] is sonic hedgehog pathway. Nature of the experiment: Hedgehog reporter assay (gli-luciferase) in TM3 cells. Type of experiment: cell-based, mouse. Particulars: read-out: TM3 Avg. EC50.
Source text: as §1, §2, §3

[4] abbreviates: HepM human embryonic palatal mesenchymal cells, gli-luciferase reporter.
Setting [5] is: TM3 mouse Leydig cells, gli-luciferase reporter.

Where a name gives a salt, the structure may show the parent alone.

In the case of `CNC(=O)c1cc(-c2ccc(OC)c(CN(C(=O)c3sc4c(F)ccc(F)c4c3Cl)C3CCC(NC)CC3)c2)ccn1` (stereo not drawn) [356 (R21), 4-(3-{[(3-Chloro-4,7-difluoro-benzo[b]thiophene-2-carbonyl)-(4-methylamino-cyclohexyl)-amino]-methyl}-4-methoxy-phenyl)-pyridine-2-carboxylic acid methylamide dihydrochloride], the EC50 in experiment [1], in experiment [2] (setting [4]) and in experiment [3] (setting [5]) was below 50 nM throughout.
Consider `CNC1CCC(N(Cc2cc(-c3ccc(OC)cc3)ccc2OC)C(=O)c2sc3ccccc3c2Cl)CC1` (stereo not drawn) [Compound 305, 3-Chloro-benzo[b]thiophene-2-carboxylic acid (4,4′-dimethoxy-biphenyl-3-ylmethyl)-(4-methylamino-cyclohexyl)-amide hydrochloride], for which the EC50 is below 50 nM in experiment [1], 250 to 1000 nM in experiment [2] (setting [4]) and below 50 nM in experiment [3] (setting [5]).
Consider `CCOc1ccc(-c2ccc(C(C)=O)cc2)cc1CN(C(=O)c1sc2ccccc2c1Cl)C1CCC(NC)CC1` (stereo not drawn) [Compound 311, 3-Chloro-benzo[b]thiophene-2-carboxylic acid (4′-acetyl-4-ethoxy-biphenyl-3-ylmethyl)-(4-methylamino-cyclohexyl)-amide hydrochloride], for which the values for the EC50 in experiment [1], in experiment [2] (setting [4]) and in experiment [3] (setting [5]) were below 50 nM, 50 to 250 nM and below 50 nM, respectively.
On to `CNC1CCC(N(Cc2cc(-c3cncnc3)ccc2OC)C(=O)c2sc3ccccc3c2Cl)CC1` (stereo not drawn) [Compound 324 (R20), 3-Chloro-benzo[b]thiophene-2-carboxylic acid (2-methoxy-5-pyrimidin-5-yl-benzyl)-(4-methylamino-cyclohexyl)-amide dihydrochloride], for which the EC50 in experiment [1] is below 50 nM; in experiment [2] (setting [4]) it was 50 to 250 nM; in experiment [3] (setting [5]) it was 50 to 250 nM.
Regarding `CCOc1ccc(-c2cnc(N)nc2)cc1CN(C(=O)c1sc2ccccc2c1Cl)[C@H]1CC[C@H](NC)CC1` [Compound 325, 3-Chloro-benzo[b]thiophene-2-carboxylic acid[5-(2-amino-pyrimidin-5-yl)-2-ethoxy-benzyl]-(4-methylamino-cyclohexyl)-amide dihydrochloride], the EC50 is below 50 nM in experiment [1], 50 to 250 nM in experiment [2] (setting [4]) and 250 to 1000 nM in experiment [3] (setting [5]).
In the same order, the values of `CCOc1ccc(-c2cncnc2)cc1CN(C(=O)c1sc2ccccc2c1Cl)C1CCC(NC)CC1` (stereo not drawn) [Compound 326, 3-Chloro-benzo[b]thiophene-2-carboxylic acid (2-ethoxy-5-pyrimidin-5-yl-benzyl)-(4-methylamino-cyclohexyl)-amide dihydrochloride] are below 50 nM, 50 to 250 nM and 50 to 250 nM.
With `CCOc1ccc(-c2cccc(C#N)c2)cc1CN(C(=O)c1sc2ccccc2c1Cl)C1CCC(NC)CC1` (stereo not drawn) [Compound 328, 3-Chloro-benzo[b]thiophene-2-carboxylic acid (3′-cyano-4-ethoxy-biphenyl-3-ylmethyl)-(4-methylamino-cyclohexyl)-amide hydrochloride], the EC50 in experiment [1] is below 50 nM; in experiment [2] (setting [4]), 50 to 250 nM; in experiment [3] (setting [5]), below 50 nM.
As to `CNC1CCC(N(Cc2cc(-c3cnccn3)ccc2OC)C(=O)c2sc3ccccc3c2Cl)CC1` (stereo not drawn) [Compound 330 (R22), 3-Chloro-benzo[b]thiophene-2-carboxylic acid (2-methoxy-5-pyrazin-2-yl-benzyl)-(4-methylamino-cyclohexyl)-amide bis(trifluoroacetate)], the values for the half-maximal effective concentration (EC50) in experiment [1], in experiment [2] (setting [4]) and in experiment [3] (setting [5]) were below 50 nM, 50 to 250 nM and 50 to 250 nM, respectively.
On to `CNC1CCC(N(Cc2cc(-c3ccc(CCl)cc3)ccc2OC)C(=O)c2sc3ccccc3c2Cl)CC1` (stereo not drawn) [Compound 340, 3-Chloro-benzo[b]thiophene-2-carboxylic acid (4′-chloromethyl-4-methoxy-biphenyl-3-ylmethyl)-(4-methylamino-cyclohexyl)-amide hydrochloride], for which the EC50 in experiment [1], in experiment [2] (setting [4]) and in experiment [3] (setting [5]) was below 50 nM in each case.
As to `CNC1CCC(N(Cc2cc(-c3cncnc3)ccc2OC)C(=O)c2sc3c(F)ccc(F)c3c2Cl)CC1` (stereo not drawn) [Compound 343 (R15), 3-Chloro-4,7-difluoro-benzo[b]thiophene-2-carboxylic acid(2-methoxy-5-pyrimidin-5-yl-benzyl)-(4-methylamino-cyclohexyl)-amide dihydrochloride], the EC50 in experiment [1], in experiment [2] (setting [4]) and in experiment [3] (setting [5]) was below 50 nM in each case.
Regarding `CNC1CCC(N(Cc2cc(-c3cnccn3)ccc2OC)C(=O)c2sc3c(F)ccc(F)c3c2Cl)CC1` (stereo not drawn) [Compound 344 (R14), 3-Chloro-4,7-difluoro-benzo[b]thiophene-2-carboxylic acid(2-methoxy-5-pyrazin-2-yl-benzyl)-(4-methylamino-cyclohexyl)-amide dihydrochloride], the EC50 in experiment [1], in experiment [2] (setting [4]) and in experiment [3] (setting [5]) was below 50 nM in each case.
In the case of `CN[C@H]1CC[C@@H](N(Cc2cc(-c3ccnc(C)c3)ccc2OC)C(=O)C2=C(Cl)c3c(F)ccc(C)c3C2)CC1` [Compound 345, 3-Chloro-4,7-difluoro-benzo[b]thiophene-2-carboxylic acid[2-methoxy-5-(2-methyl-pyridin-4-yl)-benzyl]-(4-methylamino-cyclohexyl)-amide dihydrochloride], the EC50 in experiment [1], in experiment [2] (setting [4]) and in experiment [3] (setting [5]) was below 50 nM each time.
Consider `CNC1CCC(N(Cc2cc(-c3ccc(N(C)C=O)cc3)ccc2OC)C(=O)c2sc3cccc(F)c3c2Cl)CC1` (stereo not drawn) [Compound 347, 3-Chloro-4-fluoro-benzo[b]thiophene-2-carboxylic acid[4′-(formyl-methyl-amino)-4-methoxy-biphenyl-3-ylmethyl]-(4-methylamino-cyclohexyl)-amide trifluoroacetate], for which the EC50 in experiment [1], in experiment [2] (setting [4]) and in experiment [3] (setting [5]) was below 50 nM throughout.
With `CNC1CCC(N(Cc2cc(-c3ccnc(C(=O)O)c3)ccc2OC)C(=O)c2sc3c(F)ccc(F)c3c2Cl)CC1` (stereo not drawn) [Compound R6, 4-(3-{[(3-Chloro-4,7-difluoro-benzo[b]thiophene-2-carbonyl)-(4-methylamino-cyclohexyl)-amino]-methyl}-4-methoxy-phenyl)-pyridine-2-carboxylic acid bis(trifluoroacetate)], the EC50 in experiment [2] (setting [4]) and in experiment [3] (setting [5]) was 50 to 250 nM each time.
`CNC1CCC(N(Cc2cc(-c3ccc(S(C)(=O)=O)cc3)ccc2OC)C(=O)c2sc3ccccc3c2Cl)CC1` (stereo not drawn) [Compound R7, 3-Chloro-benzo[b]thiophene-2-carboxylic acid (4′-methanesulfonyl-4-methoxy-biphenyl-3-ylmethyl)-(4-methylamino-cyclohexyl)-amide hydrochloride]: the EC50 in experiment [2] (Homo sapiens) was below 50 nM; in experiment [3] (Mus musculus, Leydig) it was below 50 nM.
Turning to `CN[C@H]1CC[C@@H](N(Cc2cc(-c3ccc(C(C)=O)cc3)ccc2OC)C(=O)C2=C(Cl)c3c(F)ccc(F)c3C2)CC1` [Compound R8, 3-Chloro-4,7-difluoro-benzo[b]thiophene-2-carboxylic acid(4′-carbamoyl-4-methoxy-biphenyl-3-ylmethyl)-(4-methylamino-cyclohexyl)-amide hydrochloride], the EC50 in experiment [2] (setting [4]) and in experiment [3] (setting [5]) was below 50 nM throughout.
